According to patent US12338238B2, “Inhibitors of SARM1” (Disarm Therapeutics, Inc., priority 2018, dated 2025):
pIC50: −log10 of the molar value.

Each compound was assayed against SARM1 SAM-TIR (Homo sapiens (Human), UniProt Q6SZW1) (assay: biochemical). Conditions: SAM-TIR lysate 5 μg/mL, 2 hr pre-incubation, 5 μM NAD+, RapidFire MS.
Type: biochemical

SARM1 SAM-TIR, sequence (Q6SZW1 409-724): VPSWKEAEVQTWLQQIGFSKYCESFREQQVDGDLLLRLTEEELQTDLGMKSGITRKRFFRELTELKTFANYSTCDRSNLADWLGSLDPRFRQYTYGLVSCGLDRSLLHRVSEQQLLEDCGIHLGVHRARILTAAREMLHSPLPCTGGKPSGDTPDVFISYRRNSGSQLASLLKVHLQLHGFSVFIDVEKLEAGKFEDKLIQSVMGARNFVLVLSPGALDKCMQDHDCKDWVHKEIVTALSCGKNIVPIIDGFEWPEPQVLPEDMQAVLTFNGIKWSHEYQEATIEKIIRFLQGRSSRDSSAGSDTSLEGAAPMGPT

Compared with `Brc1cncc2ccccc12` [Example 2], `Cc1cncc2ccccc12` [Example 17] is higher in pIC50: 4.52 to 4.82 for the first, 4.82 to 5.30 for the second. The second is the more potent here.

`O=c1[nH]cc(I)c2ccncc12` [Example 3] and `O=c1[nH]cc(Br)c2ccncc12` [Example 4] cannot be ordered by pIC50: > 5.30 for the first, > 5.30 for the second.

First: O=c1[nH]ccc2ccncc12 [Example 5]
Second: O=c1[nH]ccc2ccc(O)cc12 [Example 39]
The pIC50 of the first is higher: > 5.30 for the first, < 4.52 for the second.

`O=c1[nH]ncc2ccc(F)cc12` [Example 7] and `COc1cc2cc[nH]c(=O)c2cc1F` [Example 40] cannot be ordered by pIC50: < 4.52 for the first, < 4.52 for the second.

`Brc1cccc2cnccc12` [Example 8] and `Clc1cccc2cnccc12` [Example 42] cannot be ordered by pIC50: > 5.30 for the first, > 5.30 for the second.

Compared with `Nc1ccc2cnccc2c1Cl` [Example 9], `Nc1ccc(Cl)c2ccncc12` [Example 32] is higher in pIC50: 4.52 to 4.82 for the first, > 5.30 for the second.

First: Brc1cccc2cnncc12 [Example 10]
Second: Nc1cccc2cnncc12 [Example 37]
The pIC50 of the first is higher: > 5.30 for the first, 4.52 to 4.82 for the second.

`Oc1cccc2ccncc12` [Example 11] and `Oc1cccc2cnccc12` [Example 44] cannot be ordered by pIC50: > 5.30 for the first, > 5.30 for the second.

`Nc1ccc(Br)c2ccncc12` [Example 12] and `Oc1ccc(Br)c2ccncc12` [Example 65] cannot be ordered by pIC50: > 5.30 for the first, > 5.30 for the second.

First: Cc1cncc2cccc(Br)c12 [Example 13]
Second: Nc1cccc2cncc(Br)c12 [Example 35]
The pIC50 of the first is higher: 4.82 to 5.30 for the first, 4.52 to 4.82 for the second.

Compared with `Oc1cc2c(Br)cccc2cn1` [Example 14], `Cc1cc2c(N)cccc2cn1` [Example 58] is higher in pIC50: < 4.52 for the first, 4.82 to 5.30 for the second.

First: COc1ccc(Br)c2ccncc12 [Example 15]
Second: Clc1ccc(Br)c2cnccc12 [Example 34]
The pIC50 of the first is higher: > 5.30 for the first, 4.52 to 4.82 for the second. The first is the more potent here.

First: Brc1ccc2cnncc2c1 [Example 16]
Second: Ic1cccc2cnncc12 [Example 64]
The pIC50 of the first is lower: < 4.52 for the first, > 5.30 for the second. The second is the more potent here.

`Nc1nccc2c(I)cccc12` [Example 18] and `Nc1nccc2c(Br)cccc12` [Example 55] cannot be ordered by pIC50: > 5.30 for the first, > 5.30 for the second.

First: c1cc(C2CC2)c2ccncc2c1 [Example 19]
Second: Nc1nccc2c(C3CC3)cccc12 [Example 84]
The pIC50 of the first is higher: 4.82 to 5.30 for the first, < 4.52 for the second.

First: CCn1cc(Br)c2ccncc2c1=O [Example 20]
Second: Cn1cc(Br)c2ccncc2c1=O [Example 66]
The pIC50 of the first is lower: 4.82 to 5.30 for the first, > 5.30 for the second. The second is the more potent here.

Compared with `COc1ncc(Br)c2ccncc12` [Example 21], `Nc1ncc(Br)c2ccncc12` [Example 46] is higher in pIC50: 4.82 to 5.30 for the first, > 5.30 for the second.

First: CC(C)c1c[nH]c(=O)c2cnccc12 [Example 22]
Second: COc1c[nH]c(=O)c2cnccc12 [Example 28]
The pIC50 of the first is higher: 4.82 to 5.30 for the first, < 4.52 for the second. The first is the more potent here.

`CN(C)c1nccc2c(Br)cccc12` [Example 23] and `Cc1nccc2c(Br)cccc12` [Example 53] cannot be ordered by pIC50: < 4.52 for the first, < 4.52 for the second.

Going from `COc1ncc(C2CC2)c2ccncc12` [Example 24] to `CNc1ncc(Br)c2ccncc12` [Example 68], the pIC50 rises from < 4.52 to > 5.30.

First: CC(C)Oc1cccc2cnccc12 [Example 25]
Second: COc1cccc2cnccc12 [Example 49]
The pIC50 of the first is lower: < 4.52 for the first, 4.82 to 5.30 for the second. The second is the more potent here.

First: CNc1nccc2c(Br)cccc12 [Example 27]
Second: O=S(=O)(Nc1nccc2c(Br)cccc12)C1CC1 [Example 77]
The pIC50 of the first is lower: < 4.52 for the first, 4.52 to 4.82 for the second.

`O=c1cc(Br)c2ccncc2[nH]1` [Example 29] and `COc1cc(Br)c2ccncc2n1` [Example 69] cannot be ordered by pIC50: > 5.30 for the first, > 5.30 for the second.

Compared with `Fc1cc(Cl)c2ccncc2c1` [Example 30], `Clc1ccc(Cl)c2cnccc12` [Example 57] is lower in pIC50: > 5.30 for the first, 4.82 to 5.30 for the second.

First: O=c1[nH]ccc2c(Br)cccc12 [Example 33]
Second: Nc1cccc2c(Br)cncc12 [Example 52]
The pIC50 of the first is higher: 4.82 to 5.30 for the first, < 4.52 for the second.

Compared with `c1cc2ccncc2cn1` [Example 36], `c1ccc2cnccc2c1` [Example 48] is higher in pIC50: 4.52 to 4.82 for the first, 4.82 to 5.30 for the second.

First: Nc1nccc2ccncc12 [Example 38]
Second: Nc1ccnc2cnccc12 [Example 71]
The pIC50 of the first is lower: < 4.52 for the first, 4.82 to 5.30 for the second.

`Clc1ccnc2cnccc12` [Example 41] and `Brc1ccnc2cnccc12` [Example 67] cannot be ordered by pIC50: > 5.30 for the first, > 5.30 for the second.

Compared with `c1ccc2nnccc2c1` [Example 43], `Oc1cncc2ccccc12` [Example 59] is lower in pIC50: > 5.30 for the first, 4.52 to 4.82 for the second. The first is the more potent here.

Compared with `OCc1cccc2cnccc12` [Example 45], `NCc1cccc2cnccc12` [Example 50] is lower in pIC50: > 5.30 for the first, 4.52 to 4.82 for the second.

First: O=[N+]([O-])c1cccc2cnccc12 [Example 47]
Second: C#Cc1cccc2cnccc12 [Example 85]
The pIC50 of the first is lower: 4.82 to 5.30 for the first, > 5.30 for the second.

First: COC(=O)c1cccc2cnccc12 [Example 51]
Second: CC(=O)c1cccc2cnccc12 [Example 79]
The pIC50 of the first is lower: < 4.52 for the first, 4.52 to 4.82 for the second. The second is the more potent here.

`O=C(O)c1ccnc2cnccc12` [Example 54] and `O=c1[nH]cnc2ccncc12` [Example 78] fall in the same range of pIC50: 4.52 to 4.82 for the first, 4.52 to 4.82 for the second.

First: COc1cccc2ccncc12 [Example 56]
Second: COc1cccc2cnncc12 [Example 73]
The pIC50 of the first is higher: > 5.30 for the first, 4.82 to 5.30 for the second.

First: Brc1cccc2cncnc12 [Example 60]
Second: Brc1cncc2cnccc12 [Example 70]
The pIC50 of the first is lower: < 4.52 for the first, > 5.30 for the second.

`FC(F)(F)c1cccc2cnccc12` [Example 61] and `CC(C)(O)c1cccc2cnccc12` [Example 82] cannot be ordered by pIC50: < 4.52 for the first, < 4.52 for the second.

Compared with `Nc1ccc(O)c2cnccc12` [Example 62], `Nc1c[nH]c(=O)c2cnccc12` [Example 75] is lower in pIC50: > 5.30 for the first, 4.52 to 4.82 for the second.

`Nc1cncc2ccccc12` [Example 63] and `CSc1cccc2cnccc12` [Example 74] fall in the same range of pIC50: 4.82 to 5.30 for the first, 4.82 to 5.30 for the second.

First: CNC(=O)Nc1ncc(Br)c2ccncc12 [Example 72]
Second: Clc1ncc(Br)c2ccncc12 [Example 81]
The pIC50 of the first is higher: 4.82 to 5.30 for the first, < 4.52 for the second.

Compared with `Cc1nccc2c(Br)c[nH]c(=O)c12` [Example 76], `O=c1[nH]cc(Br)c2cc[n+]([O-])cc12` [Example 83] is lower in pIC50: 4.52 to 4.82 for the first, < 4.52 for the second.

`O=c1[nH]cc([N+](=O)[O-])c2ccncc12` [Example 80] was tested, and the pIC50 was < 4.52.

Each compound was assayed on mouse dorsal root ganglion (DRG) axons (assay: Axon degeneration assay in mouse DRG drop culture). Conditions: protection of axon fragmentation, axonal transection or chemotoxic stimuli.
Type: cell-based
Experimental: This Example illustrates an in vitro axon degeneration assay used to characterize compounds of Formula I. This assay is used to test the efficacy of the compounds of Formula I to prevent axonal degeneration in a mouse dorsal root ganglion (DRG) drop culture.
Mouse dorsal root ganglion neurons (DRGs) were dissected out of E12.5 CD1 mice (50 ganglion per embryo) and incubated with 0.5% Trypsin solution containing 0.02% EDTA (Gibco) at 37° C. for 15 min. The cells were then triturated by gentle pipetting and washed 3 times with DRG growth medium (Neurobasal medium (Gibco) containing 2% B27 (Invitrogen), 100 ng/ml 2.5S NGF (Harland Bioproducts), […] 5-fluoro-2′deoxyuridine (Sigma), penicillin, and streptomycin). Cells were suspended in the DRG growth medium. DRG drop cultures were created by spotting 5000 cells/well into the center of each well of a 96-well tissue culture plate coated with poly-D-Lysine (0.1 mg/ml; Sigma) and laminin ([…]; Invitrogen). Cells were allowed to adhere to the plates in a humidified tissue culture incubator (5% CO2) for 15 min and then DRG growth medium was gently added ([…]).
Axonal degeneration was stimulated either by manual axonal transection using a scalpel blade, or chemotoxic stimuli. After an appropriate experimental time period, the DRG cultures were fixed in 1% PFA plus sucrose and kept in the fridge prior to imaging. Bright-field images of DRG axons and cell bodies were collected using the 20x water immersion lens of a Phenix automated confocal microscope (PerkinElmer) and quantitation of axonal performed using in-house developed scripts (Acapella, PerkinElmer).

`Brc1cccc2cnccc12` [Example 8] and `Ic1cccc2cnccc12` [Example 26] cannot be ordered by pIC50: > 5.00 for the first, > 5.00 for the second.

For `Clc1cccc2cnccc12` [Example 42], the pIC50 was 4.52 to 5.00.
